# US20230024461A1, “METHODS FOR DUAL DNA/PROTEIN TAGGING OF OPEN CHROMATIN” (Beth Israel Deaconess Medical Center, Inc., priority 2019, published 2023)
# T1: PML-RARA oncogenic fusion protein (Homo sapiens, UniProt P10276+P29590)
# T1 construct: PML portion (fusion partner, human Protein PML, P29590); endogenous in cells; host or cells: NB4 acute promyelocytic leukemia cells
# T1 sequence (P29590+P10276 with tags, fused parts or gaps): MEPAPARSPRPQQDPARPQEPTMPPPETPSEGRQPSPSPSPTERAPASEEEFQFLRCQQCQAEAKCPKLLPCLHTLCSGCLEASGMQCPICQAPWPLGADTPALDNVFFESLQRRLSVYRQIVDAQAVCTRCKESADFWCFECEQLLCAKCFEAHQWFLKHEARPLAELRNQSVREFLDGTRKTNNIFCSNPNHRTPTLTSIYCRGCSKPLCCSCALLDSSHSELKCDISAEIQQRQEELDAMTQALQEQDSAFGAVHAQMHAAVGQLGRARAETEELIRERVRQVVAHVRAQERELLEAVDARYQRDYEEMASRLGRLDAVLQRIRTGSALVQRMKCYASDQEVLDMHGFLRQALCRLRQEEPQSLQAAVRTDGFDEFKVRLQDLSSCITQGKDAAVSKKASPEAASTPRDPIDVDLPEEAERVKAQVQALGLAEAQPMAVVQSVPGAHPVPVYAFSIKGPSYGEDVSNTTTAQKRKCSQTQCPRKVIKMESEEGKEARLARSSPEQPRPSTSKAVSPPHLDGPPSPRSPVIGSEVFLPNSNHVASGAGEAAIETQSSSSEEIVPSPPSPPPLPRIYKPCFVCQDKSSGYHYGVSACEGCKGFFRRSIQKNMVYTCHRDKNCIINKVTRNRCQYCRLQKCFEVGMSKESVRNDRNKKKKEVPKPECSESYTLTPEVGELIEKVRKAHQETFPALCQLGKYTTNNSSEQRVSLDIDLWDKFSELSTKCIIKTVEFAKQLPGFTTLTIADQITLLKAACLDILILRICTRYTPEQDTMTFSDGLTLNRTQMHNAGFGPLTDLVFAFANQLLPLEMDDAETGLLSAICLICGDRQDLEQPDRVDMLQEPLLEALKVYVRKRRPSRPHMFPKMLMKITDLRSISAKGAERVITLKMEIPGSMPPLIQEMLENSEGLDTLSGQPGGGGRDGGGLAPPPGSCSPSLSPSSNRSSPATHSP
# Key:
# NB4 cells [1] = experiment: Granulocytic differentiation analysis (flow cytometry); assay type: cell-based, human; details: 1 μM ATRA, 48 hours, versus DMSO
# Procedure: NB4 cells treated either with DMSO or 1 μM ATRA were washed with 2% fetal bovine serum prior to staining. Anti-human CD11b-PE-Cy7 antibody conjugate (Clone: ICRF44, Biolegend Catalog #301321; 1:100) and anti-human CD11c-APC antibody conjugate (Clone: B-1y6, BD Pharmingen #559877; 1:100) were incubated with samples for 20 minutes and then washed to remove excess antibody. Stained samples were analyzed on a Beckman Coulter CytoFLEX LX flow cytometer with the CytoExpert v2.3.1.22 software. Data were analyzed with FlowJo v10.0.7.
# NB4 cells [2] = experiment: Cell proliferation assay (CellTiter-Glo); assay type: cell-based, human; details: 1 μM ATRA, 48 hours, versus DMSO
# Procedure: Cell proliferation assay. NB4 cells were seeded at a density of 5e5 cells/mL subjected to either DMSO or 1 μM ATRA. After 48 hours, 50 μL cell suspension was added to 50 μL CellTiter-Glo reagent, incubated for 10 minutes at room temperature, and assayed for luminescence with a SpectraMax iD3 plate reader.
# [3] = target: T1, PML-RARA oncogenic fusion protein; experiment: Western blotting analysis of the PML epitope; assay type: cell-based; details: NB4 cells, 48 hours ATRA versus DMSO
# Procedure: Western blotting analysis. Whole cell or nuclear lysates were generated by resuspending cells or nuclei in RIPA (Boston BioProducts) supplemented with 1× cOmplete EDTA-free protease inhibitor cocktail (Roche). Lysates were incubated on ice for 30 minutes, sonicated via a Sonic Dismembrator 100 (Fisher Scientific) at setting 3 with 3-4 pulses of 15 seconds on/off on ice, and treated with benzonase for an additional 30 minutes on ice. Lysates were clarified by centrifugation (15,000×g, 20 minutes, 4° C.) and their concentrations quantified via the detergent-compatible Bradford assay (Thermo Fisher Scientific). All Western blots were run on NuPAGE 4-12% Bis-Tris protein gels (Thermo Fisher Scientific) and transferred to 0.2 μm nitrocellulose membranes (GE Healthcare). Membranes were blocked with 3% milk in PBS-T and incubated overnight with primary antibody and subsequently with secondary antibody after brief washing with PBS-T. Chemiluminescence was determined by applying ECL Western Blotting detection reagent (GE Healthcare) to membranes and imaging on an Amersham Imager 600 (GE Healthcare). Membranes were stripped with Restore PLUS Stripping Buffer (Thermo Fisher Scientific). Primary antibodies used were anti-FLAG M2 (mouse, Sigma-Aldrich, F1804, 1:2000), anti-PCNA (mouse, PC10, Santa Cruz Biotechnology sc-56, 1:1000), and anti-PML (rabbit, Bethyl A301-[MUT], 1:1000). […]
# NB4 cells [4] = experiment: iDAPT-MS of NB4 nuclei, ATRA versus DMSO; assay type: cell-based, human; details: TP3 probe
# Procedure: DNA and protein tagging by iDAPT. All iDAPT proteomic labeling assays were performed as described below unless indicated otherwise. 2.5 μmol MEDS-A/B, 2 μmol enzyme, and 1 μmol hemin chloride per channel were incubated at room temperature for 1 hour. 1e7 cells per sample were washed (500×g, 5 minutes, 4° C.), lysed and triturated in 100 μL LB1 (10 mM Tris-HCl pH 7.5, 10 mM NaCl, 3 mM MgCl2, 1% BSA, 0.01% digitonin, 0.1% Tween-20, 0.1% NP-40, and 1× cOmplete EDTA-free protease inhibitor cocktail [Roche]) for 3 minutes, and subsequently supplemented with an additional 1 mL of LB2 (10 mM Tris-HCl pH 7.5, 10 mM NaCl, 3 mM MgCl2, 1% BSA, 0.1% Tween-20, and 1× protease inhibitor). Nuclei were pelleted (500×g, 10 minutes, 4° C.), resuspended with tagmentation reaction mixture (20% dimethylformamide, 10 mM MgCl2, 20 mM Tris-HCl pH 7.5, 33% 1×PBS, 1% BSA, 0.01% digitonin, 0.1% Tween-20, 500 μM biotin-phenol, 1× protease inhibitor, and 2 pmol enzyme equivalent of enzyme:DNA:heme complex in a total volume of 500 μL), and incubated at 37° C. for 30 minutes with agitation on a thermomixer (1,000 rpm). […] Lysates were clarified by centrifugation (15,000×g, 20 minutes, 4° C.), quantified via the detergent-compatible Bradford assay (Thermo Fisher Scientific), and subjected to either Western blotting or quantitative mass spectrometry analyses as described below. […]
# HEK293T nuclei = experiment: iDAPT protein labeling, western blot of labeled nuclear lysates; assay type: biochemical, human; details: extracted HEK293T nuclei
# Procedure: DNA and protein tagging by iDAPT. All iDAPT proteomic labeling assays were performed as described below unless indicated otherwise. 2.5 μmol MEDS-A/B, 2 μmol enzyme, and 1 μmol hemin chloride per channel were incubated at room temperature for 1 hour. 1e7 cells per sample were washed (500×g, 5 minutes, 4° C.), lysed and triturated in 100 μL LB1 (10 mM Tris-HCl pH 7.5, 10 mM NaCl, 3 mM MgCl2, 1% BSA, 0.01% digitonin, 0.1% Tween-20, 0.1% NP-40, and 1× cOmplete EDTA-free protease inhibitor cocktail [Roche]) for 3 minutes, and subsequently supplemented with an additional 1 mL of LB2 (10 mM Tris-HCl pH 7.5, 10 mM NaCl, 3 mM MgCl2, 1% BSA, 0.1% Tween-20, and 1× protease inhibitor). Nuclei were pelleted (500×g, 10 minutes, 4° C.), resuspended with tagmentation reaction mixture (20% dimethylformamide, 10 mM MgCl2, 20 mM Tris-HCl pH 7.5, 33% 1×PBS, 1% BSA, 0.01% digitonin, 0.1% Tween-20, 500 μM biotin-phenol, 1× protease inhibitor, and 2 pmol enzyme equivalent of enzyme:DNA:heme complex in a total volume of 500 μL), and incubated at 37° C. for 30 minutes with agitation on a thermomixer (1,000 rpm). 5 μL of tagmentation mix was saved for quality assessment as described above for ATAC-seq/iDAPT-seq sample preparation. The remaining nuclear suspension was then washed 2× with 1×PBS supplemented with 500 μM biotin-phenol, 1% BSA, 0.1% Tween-20, and 1× protease inhibitor (3000×g, 5 minutes, 4° C.) and labeled with 1 mM hydrogen peroxide and 500 μM biotin-phenol for 1 minute in 1×PBS with 1× protease inhibitor in a volume of 500 μL. Peroxidation reactions were quenched with 500 μL 2× quenching buffer (10 mM Trolox, 20 mM sodium ascorbate, 20 mM NaN3, and 1× protease inhibitor in 1×PBS). Labeled nuclei were then pelleted, washed with 1× quenching buffer, resuspended in 500 μL RIPA containing protease inhibitors, and frozen at −80° C. Lysates were thawed on ice, sonicated via a Sonic Dismembrator 100 (Fisher Scientific, setting 3, 15 seconds, 4 pulses), and incubated on ice for 30 minutes after the addition of 1 μL benzonase (EMD Millipore). Lysates were clarified by centrifugation (15,000×g, 20 minutes, 4° C.), quantified via the detergent-compatible Bradford assay (Thermo Fisher Scientific), and subjected to either Western blotting or quantitative mass spectrometry analyses as described below. For NB4 cell analysis, an additional endogenous peroxidase blocking step was added after nuclear extraction and before tagmentation: nuclei were resuspended in 500 μL 1×PBS containing 1% BSA, 0.03% hydrogen peroxide, and 0.1% NaN3 and incubated on ice for 30 minutes. Nuclei were pelleted and washed 4× with 1×PBS/1% BSA (3000×g, 5 minutes, 4° C.). Residual hydrogen peroxide was monitored by colorimetric assessment of supernatant via Quantofix peroxides test stick (Sigma).
# Western blotting analysis. Whole cell or nuclear lysates were generated by resuspending cells or nuclei in RIPA (Boston BioProducts) supplemented with 1× cOmplete EDTA-free protease inhibitor cocktail (Roche). […] Lysates were clarified by centrifugation (15,000×g, 20 minutes, 4° C.) and their concentrations quantified via the detergent-compatible Bradford assay (Thermo Fisher Scientific). […] Membranes were blocked with 3% milk in PBS-T and incubated overnight with primary antibody and subsequently with secondary antibody after brief washing with PBS-T. Chemiluminescence was determined by applying ECL Western Blotting detection reagent (GE Healthcare) to membranes and imaging on an Amersham Imager 600 (GE Healthcare). […]
# [5] = Peroxidase activity assay (Amplex UltraRed/resorufin fluorescence); assay type: biochemical; details: 1 mM hydrogen peroxide, one minute
# Procedure: Peroxidase activity assay. 5 pmol enzyme was incubated with 2.5 pmol hemin chloride (dissolved in DMSO, Cayman Chemical) for 1 hour at room temperature. This molar ratio was selected given reports of APEX2 maximal heme occupancy between 40-57%. Heme:protein complexes were then subjected to 50 μM Amplex UltraRed (Thermo Fisher Scientific) and 1 mM hydrogen peroxide for 1 minute at room temperature in a total volume of 100 μL with 1×PBS. Reactions were then quenched with 100 μL 2× quenching solution (10 mM Trolox, 20 mM sodium ascorbate, and 20 mM NaN3 in 1×PBS), and fluorescence intensities were measured on a SpectraMax iD3 plate reader, with excitation at 530 nm and emission at 590 nm.
# Peroxidase activity assay. 5 pmol enzyme was incubated with 2.5 pmol hemin chloride (Cayman Chemical, dissolved in DMSO) for 1 hour at room temperature. This molar ratio was selected given reports of APEX2 maximal heme occupancy between 40-57%. […] Reactions were then quenched with 100 μL 2× quenching solution (10 mM Trolox, 20 mM sodium ascorbate, and 20 mM NaN3 in 1×PBS), and fluorescence intensities were measured on a SpectraMax iD3 plate reader with the SoftMax Pro v7.0.3 software, with excitation at 530 nm and emission at 590 nm.
Molecule,differentiation (NB4 cells [1]),proliferation (cell counts) (NB4 cells [2]),effect on PML-RARA oncogenic fusion protein [3],"enrichment of PU.1/SPI1, CEBPB, and CEBPE on open chromatin (NB4 cells [4])",enrichment of RARA on open chromatin (NB4 cells [4]),peroxidase-dependent biotin signal (HEK293T nuclei),peroxidase activity via resorufin fluorescence [5]
"CC1=C(/C=C/C(C)=C/C=C/C(C)=C/C(=O)O)C(C)(C)CCC1 [ATRA, All-trans retinoic acid]",granulocytic differentiation,decreased proliferation,degradation of the PML-RARA oncogenic fusion protein,positive enrichment,negative enrichment,–,–
"APEX2-F: FLAG-tagged APEX2 peroxidase alone, negative control probe; amino acid SEQ ID NO: 21 (protein, FLAG tag) MGKSYPTVSADYQDAVEKAKKKLRGFIAEKRCAPLMLRLAFHSAGTFDKGTKTGGPFGTIKHPAELAHSANNGLDIAVRLLEPLKAEFPILSYADFYQLAGVVAVEVTGGPKVPFHPGREDKPEPPPEGRLPDPTKGSDHLRDVFGKAMGLTDQDIVALSGGHTIGAAHKERSGFEGPWTSNPLIFDNSYFTELLSGEKEGLLQLPSDKALLSDPVFRPLVDKYAADEDAFFADYAEAHQKLSELGFADADYKDDDDK",–,–,–,–,–,low signal,detected
